# Experimental data as given in patent US20220235136A1, “METHODS AND COMPOSITIONS FOR TREATING A DISEASE OR DISORDER” (YALE UNIVERSITY, priority 2019, published 2022).
# Experiments:
# B16 melanoma = test: subcutaneous B16 melanoma mouse tumor model; settings: alone or combination
# Procedure: For B16 tumor model, C57BL/6 mice were inoculated subcutaneously with B16 melanoma at 2×1^5 per mouse. […] CD93 mAb (300 μg i.p.) treatment was administrated on the day of randomization (day 0), day 4 and day 9. 5-FU (3.5 mg i.p.) was administrated on day 2 and day 7. Measurements of tumor size were taken every 2 or 3 days. When tumor volume was exceeding 2000 mm^3 and/or ulceration formed, tumor bearing mice were considered as death for the calculation of survival curve.
# CD93 binding by MMRN2 = target: T1, CD93 binding by MMRN2 (Homo sapiens, UniProt Q9NPY3); test: MMRN2-Ig binding to CD93-expressing CHO cells in the presence of IGFBP7-His; settings: IGFBP7 added
# T1 construct: expressed in transfected cells
# T1 sequence (Q9NPY3 22-652): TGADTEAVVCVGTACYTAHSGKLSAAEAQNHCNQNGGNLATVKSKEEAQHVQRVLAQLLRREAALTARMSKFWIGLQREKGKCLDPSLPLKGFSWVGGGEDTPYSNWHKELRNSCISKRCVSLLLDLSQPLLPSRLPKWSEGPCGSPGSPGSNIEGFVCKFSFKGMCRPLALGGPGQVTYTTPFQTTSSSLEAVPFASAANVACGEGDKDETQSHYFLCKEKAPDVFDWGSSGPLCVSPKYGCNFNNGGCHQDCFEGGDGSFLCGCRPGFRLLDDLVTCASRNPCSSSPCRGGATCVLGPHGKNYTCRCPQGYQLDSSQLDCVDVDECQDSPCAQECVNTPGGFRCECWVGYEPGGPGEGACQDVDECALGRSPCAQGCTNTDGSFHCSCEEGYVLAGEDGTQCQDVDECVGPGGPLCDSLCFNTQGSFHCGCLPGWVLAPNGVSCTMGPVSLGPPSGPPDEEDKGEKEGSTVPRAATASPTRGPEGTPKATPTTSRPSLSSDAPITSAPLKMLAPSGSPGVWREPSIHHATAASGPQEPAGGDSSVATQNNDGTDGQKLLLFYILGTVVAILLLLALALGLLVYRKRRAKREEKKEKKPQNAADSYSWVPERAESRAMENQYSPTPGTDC
# T1 sequence (Q9H8L6 23-949 partner): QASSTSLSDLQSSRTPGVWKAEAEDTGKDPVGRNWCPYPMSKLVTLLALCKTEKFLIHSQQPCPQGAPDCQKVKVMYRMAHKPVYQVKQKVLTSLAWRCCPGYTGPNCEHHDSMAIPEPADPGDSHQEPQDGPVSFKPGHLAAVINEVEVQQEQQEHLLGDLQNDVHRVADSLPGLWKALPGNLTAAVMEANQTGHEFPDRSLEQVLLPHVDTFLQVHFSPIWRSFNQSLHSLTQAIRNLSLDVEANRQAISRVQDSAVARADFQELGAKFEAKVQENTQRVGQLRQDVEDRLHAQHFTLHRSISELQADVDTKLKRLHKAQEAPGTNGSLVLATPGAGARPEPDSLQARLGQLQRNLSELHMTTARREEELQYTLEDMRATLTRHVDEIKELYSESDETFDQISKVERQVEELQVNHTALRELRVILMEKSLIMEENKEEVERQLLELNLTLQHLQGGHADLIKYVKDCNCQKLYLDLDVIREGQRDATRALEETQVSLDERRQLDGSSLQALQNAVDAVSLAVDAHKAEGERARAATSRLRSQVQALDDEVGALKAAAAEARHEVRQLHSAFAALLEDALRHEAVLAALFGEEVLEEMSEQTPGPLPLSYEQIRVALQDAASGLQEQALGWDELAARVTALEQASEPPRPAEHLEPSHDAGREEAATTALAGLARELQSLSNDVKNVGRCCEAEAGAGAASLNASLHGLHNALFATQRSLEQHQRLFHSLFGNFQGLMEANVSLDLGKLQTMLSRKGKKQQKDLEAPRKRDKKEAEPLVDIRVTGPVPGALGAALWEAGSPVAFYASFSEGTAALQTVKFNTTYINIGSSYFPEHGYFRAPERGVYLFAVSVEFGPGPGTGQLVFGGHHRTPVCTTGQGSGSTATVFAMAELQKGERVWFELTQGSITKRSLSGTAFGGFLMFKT
# Procedure: In FIG. 28A, binding of HEK293 T cells transfected to express group 14 C-type lectin molecules were stained for the binding of IGFBP7-Ig and MMRN2-Ig. In FIG. 28B. CHO cells stably expressing CD93 were stained with control or MMRN2-Ig, with or without the presence of IGFBP7-His protein. In FIG. 28C, well coated with IGFBP7-His protein were incubated with CD93-His protein before examining for MMRN2-Ig binding by ELISA. Wells coated with CD93-His protein were used as a positive control. In FIG. 28D. HEK293T cells transfected with control or CD93 construct were stained with MMRN-Ig for binding, with or without the presence of anti-mCD93 (7C10). In FIG. 28E HEK293T cells transfected to express different mouse CD93 mutants were stained with anti-CD93 (7C10), IGFBP7-Ig, and MMRN2-Ig.
# CD93 = target: T2, CD93 (Homo sapiens, UniProt Q9NPY3); test: binding of Ig fusion proteins to CD93 transfectant (flow cytometry)
# T2 construct: expressed in transfected cells; host or cells: 293 cells (CD93+ 293)
# T2 sequence (Q9NPY3 22-652): T1 sequence (Q9NPY3 22-652)
# Description: FIGS. 10A-10B show identification of the binding domain on IGFBP7 for CD93. Each extracellular domain for IGFBP7, including insulin binding (IB). Kazal, and Ig, was swapped with the corresponding domain on IGFBPL1 using PCR cloning and fused to a C-terminal Ig. These chimeric mutants were transiently expressed in HEK293T cells and supernatants were used to stain CD93 transfectant. FIG. 10A depicts whether multiple chimeric IGFBP7 mutants bind to CD93. FIG. 10B depicts various human genes containing IB-domain constructed onto an expression vector containing Fc-Tag. Constructs were transiently transduced into HEK293T cells to produce Fc tagged fusion proteins in the supernatant. Supernatant was used to stain CD93 transfectant by flow cytometry. Binding index represents the ratio of binding MFI of CD93 transfectant to control cells.
# The IGFBP7-IGFBPL1 chimeras were generated by two-step PCR. […]
# Cell surface and intercellular staining and analysis by flow cytometry were followed the protocol previously described (71). Dead cells were excluded with SYTOX® (Blue Dead Cell Stain Kit (Thermo Fisher Scientific). Flow cytometric analysis was conducted with a BD FACS Calibur or a BD LSRFortessa™ cell analyzer (BD Bioscience, Franklin Lakes, N.J. USA), and then data were analyzed by FlowJo software (Tree Star Inc.)
# human IGF1R = target: T3, human IGF1R (Homo sapiens, UniProt P08069); test: IGFBP7-Ig binding to IGF1R transfected CHO cells (flow cytometry)
# T3 construct: expressed in transfected cells; host or cells: CHO
# Procedure: Wild type CHO and IGF1R transfected CHO cells were stained for human IGF1R staining antibody to confirm surface IGF1R expression. At the same time, cells were incubated with IGFBP7-Ig for possible interaction by flow cytometry analysis, […]
# HUVEC cells = test: HUVEC tube formation and transwell migration assay with exogenous IGFBP7 protein; type: cell-based, human
# Procedure: Pooled human umbilical vein ECs (HUVEC) purchased from Thermo Fisher were cultured in Medium 200 with LVES (Life Technologies). C57BL/6 mouse primary aortic ECs and the endothelium culture medium with supplement were purchased from Cell Biologics. For tube formation, HUVECs at 2×10^4 cells/ml were plated on Matrigel in 24-well plate. Image was recorded even 4-6 hours after incubation. The Transwell 6.5 mm polycarbonate membrane inserts pre-loaded in 24-well culture plates (Corning 3422, 8 um) were used in the cell migration model. HUVEC cells at 1×10^5/ml in 200 μl were loaded into each 24-well insert with 500 μl IBS-containing medium with different reagents in the lower chamber. After approximately 20 hours, the migrated cells were fixed with methanol, stained with Giemsa solution and counted under a light microscope.
# [1] = system: IGFBP7 expression in tumor endothelial cells; settings: 24 hours after treatment; published RNA-Seq data; cited from earlier work
# T3 sequence (P08069 31-736 limits assumed): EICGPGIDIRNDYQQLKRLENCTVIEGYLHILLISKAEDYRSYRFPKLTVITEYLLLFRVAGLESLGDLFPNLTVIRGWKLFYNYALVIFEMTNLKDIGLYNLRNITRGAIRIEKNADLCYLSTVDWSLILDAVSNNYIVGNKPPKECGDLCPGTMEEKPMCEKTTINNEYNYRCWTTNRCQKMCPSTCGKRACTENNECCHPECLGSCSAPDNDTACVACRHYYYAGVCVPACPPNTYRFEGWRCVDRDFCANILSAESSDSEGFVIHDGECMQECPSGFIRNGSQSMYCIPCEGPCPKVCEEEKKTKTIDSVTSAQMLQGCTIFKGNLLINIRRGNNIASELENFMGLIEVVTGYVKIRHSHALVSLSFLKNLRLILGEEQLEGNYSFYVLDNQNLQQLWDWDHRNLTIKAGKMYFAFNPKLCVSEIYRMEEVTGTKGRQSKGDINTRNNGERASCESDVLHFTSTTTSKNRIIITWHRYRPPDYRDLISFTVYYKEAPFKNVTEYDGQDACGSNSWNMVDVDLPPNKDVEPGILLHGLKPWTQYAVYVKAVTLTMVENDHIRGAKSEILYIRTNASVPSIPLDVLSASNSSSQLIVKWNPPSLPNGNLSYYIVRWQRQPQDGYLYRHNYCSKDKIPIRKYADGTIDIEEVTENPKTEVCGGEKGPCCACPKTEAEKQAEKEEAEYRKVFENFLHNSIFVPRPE
# T3 sequence (P08069 741-1367 limits assumed): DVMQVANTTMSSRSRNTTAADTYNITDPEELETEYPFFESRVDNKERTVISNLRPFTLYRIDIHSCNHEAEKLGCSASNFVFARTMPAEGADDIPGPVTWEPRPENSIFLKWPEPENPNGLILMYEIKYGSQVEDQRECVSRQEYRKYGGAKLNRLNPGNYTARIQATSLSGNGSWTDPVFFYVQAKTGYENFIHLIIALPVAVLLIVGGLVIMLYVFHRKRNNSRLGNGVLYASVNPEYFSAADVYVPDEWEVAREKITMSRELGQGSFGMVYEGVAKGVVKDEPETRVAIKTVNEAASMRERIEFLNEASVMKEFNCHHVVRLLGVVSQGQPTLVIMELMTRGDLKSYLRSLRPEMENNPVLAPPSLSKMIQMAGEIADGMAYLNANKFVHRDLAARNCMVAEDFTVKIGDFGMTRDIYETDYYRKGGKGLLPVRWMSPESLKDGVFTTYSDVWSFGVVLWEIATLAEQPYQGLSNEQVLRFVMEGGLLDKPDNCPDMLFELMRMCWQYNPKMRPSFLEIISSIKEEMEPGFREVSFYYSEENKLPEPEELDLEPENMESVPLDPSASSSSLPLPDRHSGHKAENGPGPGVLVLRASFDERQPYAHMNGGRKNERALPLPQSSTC
molecule,measurement,setting,value
"O=c1[nH]cc(F)c(=O)[nH]1 [5-FU, 5-fluorouracil]",B16 tumor growth,B16 melanoma,modestly inhibited
IGFBP7: a secreted protein of the insulin growth factor binding protein (IGFBP) family; recombinant protein / Fc fusion,effect on the CD93 binding by MMRN2,CD93 binding by MMRN2,did not interfere
same,binding to CD93 293 cells / CD93 transfectant,CD93; flow cytometry,strongly
same,binding to group 14 C-type lectin molecules,CD93; transfected HEK293T cells,only bound to CD93
same,binding to human IGF1R transfectant,human IGF1R,fails to bind
same,tube formation or EC migration in CD93 knockdown HUVEC cells,HUVEC cells; CD93 siRNA,lost its effect
same,tube formation and proliferation of wild type HUVEC cells,HUVEC cells; exogenous protein added,increased
aflibercept: a VEGF inhibitor,IGFBP7 in tumor ECs,[1],significantly inhibited
